Measurements as given in patent EP2776398B1, “SUBSTITUTED PYRAZOLYL-BASED UREA DERIVATIVES AS VANILLOID RECEPTOR LIGANDS” (Medifron DBT Inc., priority 2011, dated 2013).

Molecular target: T1, vanilloid receptor 1 (VR1/TRPV1 receptor) (Homo sapiens, UniProt Q8NER1)
T1 construct: expressed in transfected cells; host or cells: CHO K1 cells (ECACC), stably transfected
Assay: Functional testing on vanilloid receptor 1: FLIPR Ca2+ influx assay against capsaicin (Cap) in transfected CHO K1 cells (pharmacological method II); as to (f) Ki (human being) [nM] Cap: 100 nM capsaicin
Format: cell-based
Settings: for Ki: read-out: (f) Ki (human being) [nM] Cap
Excerpt: […]

[1] = human VR1 in CHO K1 cells, capsaicin, relative to maximum inhibition with 10 µM capsazepine, read-out: inhibition (as a percentage), printed in column (f) Ki (human being) [nM] Cap

T1 sequence (Q8NER1 whole entry): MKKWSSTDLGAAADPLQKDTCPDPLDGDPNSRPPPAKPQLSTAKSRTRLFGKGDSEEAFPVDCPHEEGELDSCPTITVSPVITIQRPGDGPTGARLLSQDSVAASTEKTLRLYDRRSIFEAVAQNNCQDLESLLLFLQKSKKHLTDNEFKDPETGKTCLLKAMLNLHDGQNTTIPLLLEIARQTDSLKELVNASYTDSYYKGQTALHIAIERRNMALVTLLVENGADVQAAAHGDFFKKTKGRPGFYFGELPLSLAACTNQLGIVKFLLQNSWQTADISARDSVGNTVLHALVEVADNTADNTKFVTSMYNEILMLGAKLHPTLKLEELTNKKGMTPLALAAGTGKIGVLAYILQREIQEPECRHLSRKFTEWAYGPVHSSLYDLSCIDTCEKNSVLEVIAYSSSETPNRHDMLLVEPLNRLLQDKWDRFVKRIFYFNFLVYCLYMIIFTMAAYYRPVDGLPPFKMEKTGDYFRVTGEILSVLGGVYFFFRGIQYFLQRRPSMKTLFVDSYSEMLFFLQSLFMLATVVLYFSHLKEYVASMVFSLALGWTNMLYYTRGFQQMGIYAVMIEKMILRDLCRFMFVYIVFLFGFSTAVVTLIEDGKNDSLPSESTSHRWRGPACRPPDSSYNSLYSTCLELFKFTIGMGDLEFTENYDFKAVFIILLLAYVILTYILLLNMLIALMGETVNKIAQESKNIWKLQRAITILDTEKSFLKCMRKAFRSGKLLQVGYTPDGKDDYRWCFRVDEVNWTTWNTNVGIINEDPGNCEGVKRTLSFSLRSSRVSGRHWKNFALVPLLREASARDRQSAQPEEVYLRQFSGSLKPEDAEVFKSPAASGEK

SMILES: CC(C)(C)c1cc(CNC(=O)Nc2ccc(C3(O)COC3)cc2)n(-c2cccc(Cl)c2)n1 [A107, 1-[[5-tert-Butyl-2-(3-chlorophenyl)-2H-pyrazol-3-yl]-methyl]-3-[4-(3-hydroxy-oxetan-3-yl)-phenyl]-urea]
- Ki: 45 nM

SMILES: O=C(NCc1cc(C(F)(F)F)nn1-c1cccc(Cl)c1)Nc1ccc(C2(O)COC2)cc1 [A108, 1-[[2-(3-Chlorophenyl)-5-(trifluoromethyl)-2H-pyrazol-3-yl]-methyl]-3-[4-(3-hydroxy-oxetan-3-yl)-phenyl]-urea]
- Ki: 48 nM

SMILES: CC(C)(C)c1cc(CNC(=O)Nc2ccc(C3(O)COC3)c(F)c2)n(-c2cccc(Cl)c2)n1 [A109, 1-[[5-tert-Butyl-2-(3-chlorophenyl)-2H-pyrazol-3-yl]-methyl]-3-[3-fluoro-4-(3-hydroxy-oxetan-3-yl)-phenyl]-urea]
- Ki: 43 nM

SMILES: COCCOCc1ccc(C(C)C(=O)NCc2cc(C(F)(F)F)nn2-c2cccc(Cl)c2)cc1F (stereo not shown) [A111, N-[[2-(3-Chlorophenyl)-5-(trifluoromethyl)-2H-pyrazol-3-yl]-methyl]-2-[3-fluoro-4-(2-methoxy-ethoxy-methyl)-phenyl]-propionamide]
- Ki: 38 nM

SMILES: COCCOCc1ccc(C(C)C(=O)NCc2cc(C(F)(F)F)nn2-c2ccc(F)c(Cl)c2)cc1F (stereo not shown) [A112, N-[[2-(3-Chloro-4-fluoro-phenyl)-5-(trifluoromethyl)-2H-pyrazol-3-yl]-methyl]-2-[3-fluoro-4-(2-methoxy-ethoxy-methyl)-phenyl]-propionamide]
- Ki: 79 nM

SMILES: O=C(Cc1ccc(COCCO)c(F)c1)NCc1cc(C(F)(F)F)nn1-c1cccc(Cl)c1 [A113, N-[[2-(3-Chlorophenyl)-5-(trifluoromethyl)-2H-pyrazol-3-yl]-methyl]-2-[3-fluoro-4-(2-hydroxy-ethoxy-methyl)-phenyl]-acetamide]
- Ki: 63 nM

SMILES: COc1cccc(-n2nc(C(F)(F)F)cc2CNC(=O)C(C)c2ccc(COCCO)c(F)c2)c1 (stereo not shown) [A114, 2-[3-Fluoro-4-(2-hydroxy-ethoxy-methyl)-phenyl]-N-[[2-(3-methoxyphenyl)-5-(trifluoromethyl)-2H-pyrazol-3-yl]-methyl]-propionamide]
- Ki: 46 nM

SMILES: CC(C)c1cccc(-n2nc(C(F)(F)F)cc2CNC(=O)C(C)c2ccc(COCCO)c(F)c2)c1 (stereo not shown) [A115, 2-[3-Fluoro-4-(2-hydroxy-ethoxy-methyl)-phenyl]-N-[[2-(3-isopropyl-phenyl)-5-(trifluoromethyl)-2H-pyrazol-3-yl]-methyl]-propionamide]
- Ki: 3 nM

SMILES: CC(C(=O)NCc1cc(C(C)(C)C)nn1-c1cccc(F)c1)c1ccc(COCCO)c(F)c1 (stereo not shown) [A116, N-[[5-tert-Butyl-2-(3-fluorophenyl)-2H-pyrazol-3-yl]-methyl]-2-[3-fluoro-4-(2-hydroxy-ethoxy-methyl)-phenyl]-propionamide]
- Ki: 18 nM

SMILES: CC(C(=O)NCc1cc(C(C)(C)C)nn1-c1cccc(Cl)c1)c1ccc(COCCO)c(F)c1 (stereo not shown) [A117, N-[[5-tert-Butyl-2-(3-chlorophenyl)-2H-pyrazol-3-yl]-methyl]-2-[3-fluoro-4-(2-hydroxy-ethoxy-methyl)-phenyl]-propionamide]
- Ki: 9 nM

SMILES: CC(C(=O)NCc1cc(C(F)(F)F)nn1-c1cccc(Cl)c1)c1ccc(COCCO)c(F)c1 (stereo not shown) [A118, N-[[2-(3-Chlorophenyl)-5-(trifluoromethyl)-2H-pyrazol-3-yl]-methyl]-2-[3-fluoro-4-(2-hydroxy-ethoxy-methyl)-phenyl]-propionamide]
- Ki: 27 nM

SMILES: C[C@H](C(=O)NCc1cc(C(F)(F)F)nn1-c1cccc(Cl)c1)c1ccc(COCCO)c(F)c1 [A119, (2S)-N-[[2-(3-Chlorophenyl)-5-(trifluoromethyl)-2H-pyrazol-3-yl]-methyl]-2-[3-fluoro-4-(2-hydroxy-ethoxy-methyl)-phenyl]-propionamide]
- Ki: 57 nM

SMILES: C[C@@H](C(=O)NCc1cc(C(F)(F)F)nn1-c1cccc(Cl)c1)c1ccc(COCCO)c(F)c1 [A120, (2R)-N-[[2-(3-Chlorophenyl)-5-(trifluoromethyl)-2H-pyrazol-3-yl]-methyl]-2-[3-fluoro-4-(2-hydroxy-ethoxy-methyl)-phenyl]-propionamide]
- Ki: 5 nM

SMILES: CC(C(=O)NCc1cc(C(F)(F)F)nn1-c1ccc(F)c(Cl)c1)c1ccc(COCCO)c(F)c1 (stereo not shown) [A121, N-[[2-(3-Chloro-4-fluoro-phenyl)-5-(trifluoromethyl)-2H-pyrazol-3-yl]-methyl]-2-[3-fluoro-4-(2-hydroxy-ethoxy-methyl)-phenyl]-propionamide]
- Ki: 20 nM

SMILES: CC(C(=O)NCc1cc(C(F)(F)F)nn1-c1cccc(F)c1)c1ccc(COCCO)c(F)c1 (stereo not shown) [A122, 2-[3-Fluoro-4-(2-hydroxy-ethoxy-methyl)-phenyl]-N-[[2-(3-fluorophenyl)-5-(trifluoromethyl)-2H-pyrazol-3-yl]-methyl]-propionamide]
- Ki: 45 nM

SMILES: Cc1cccc(-n2nc(C(F)(F)F)cc2CNC(=O)C(C)c2ccc(COCCO)c(F)c2)c1 (stereo not shown) [A123, 2-[3-Fluoro-4-(2-hydroxy-ethoxy-methyl)-phenyl]-N-[[2-(m-tolyl)-5-(trifluoromethyl)-2H-pyrazol-3-yl]-methyl]-propionamide]
- Ki: 24 nM

SMILES: CC(C(=O)NCc1cc(C(C)(C)C)nn1-c1ccc(F)cc1)c1ccc(COCCO)c(F)c1 (stereo not shown) [A124, N-[[5-tert-Butyl-2-(4-fluorophenyl)-2H-pyrazol-3-yl]-methyl]-2-[3-fluoro-4-(2-hydroxy-ethoxy-methyl)-phenyl]-propionamide]
- inhibition at 1 µM [1]: 33%

SMILES: CC(C(=O)NCc1cc(C(C)(C)C)nn1-c1cccc(OC(F)(F)F)c1)c1ccc(COCCO)c(F)c1 (stereo not shown) [A125, N-[[5-tert-Butyl-2-[3-(trifluoromethyloxy)-phenyl]-2H-pyrazol-3-yl]-methyl]-2-[3-fluoro-4-(2-hydroxy-ethoxy-methyl)-phenyl]-propionamide]
- Ki: 15 nM

SMILES: CC(C(=O)NCc1cc(C(F)(F)F)nn1-c1cc(F)cc(F)c1)c1ccc(COCCO)c(F)c1 (stereo not shown) [A126, N-[[2-(3,5-Difluoro-phenyl)-5-(trifluoromethyl)-2H-pyrazol-3-yl]-methyl]-2-[3-fluoro-4-(2-hydroxy-ethoxy-methyl)-phenyl]-propionamide]
- Ki: 79 nM

SMILES: O=C(NCc1cc(C(F)(F)F)nn1-c1cccc(Cl)c1)Nc1ccc(COCCO)c(F)c1 [A127, 1-[[2-(3-Chlorophenyl)-5-(trifluoromethyl)-2H-pyrazol-3-yl]-methyl]-3-[3-fluoro-4-(2-hydroxy-ethoxy-methyl)-phenyl]-urea]
- Ki: 40 nM

SMILES: COCCOCc1ccc(NC(=O)NCc2cc(C(F)(F)F)nn2-c2cccc(Cl)c2)cc1F [A128, 1-[[2-(3-Chlorophenyl)-5-(trifluoromethyl)-2H-pyrazol-3-yl]-methyl]-3-[3-fluoro-4-(2-methoxy-ethoxy-methyl)-phenyl]-urea]
- Ki: 67 nM

SMILES: CC(C)(C)c1cc(CNC(=O)Nc2ccc(COCCO)c(F)c2)n(-c2cccc(Cl)c2)n1 [A129, 1-[[5-tert-Butyl-2-(3-chlorophenyl)-2H-pyrazol-3-yl]-methyl]-3-[3-fluoro-4-(2-hydroxy-ethoxy-methyl)-phenyl]-urea]
- Ki: 43 nM

SMILES: O=C(NCc1cc(C(F)(F)F)nn1-c1ccc(F)c(Cl)c1)Nc1ccc(COCCO)c(F)c1 [A130, 1-[[2-(3-Chloro-4-fluoro-phenyl)-5-(trifluoromethyl)-2H-pyrazol-3-yl]-methyl]-3-[3-fluoro-4-(2-hydroxy-ethoxy-methyl)-phenyl]-urea]
- Ki: 47 nM

SMILES: O=C(NCc1cc(C(F)(F)F)nn1-c1cccc(F)c1)Nc1ccc(COCCO)c(F)c1 [A131, 1-[3-Fluoro-4-(2-hydroxy-ethoxy-methyl)-phenyl]-3-[[2-(3-fluorophenyl)-5-(trifluoromethyl)-2H-pyrazol-3-yl]-methyl]-urea]
- Ki: 56 nM

SMILES: O=C(NCc1cc(C(F)(F)F)nn1-c1ccc(F)c(F)c1)Nc1ccc(COCCO)c(F)c1 [A132, 1-[[2-(3,4-Difluoro-phenyl)-5-(trifluoromethyl)-2H-pyrazol-3-yl]-methyl]-3-[3-fluoro-4-(2-hydroxy-ethoxy-methyl)-phenyl]-urea]
- inhibition at 5 µM (@ 5µM, human VR1 in CHO K1 cells, capsaicin, relative to maximum inhibition with 10 µM capsazepine, read-out: inhibition (as a percentage), printed in column (f) Ki (human being) [nM] Cap): 48%

SMILES: O=C(NCc1cc(C(F)(F)F)nn1-c1cccc(Cl)c1Cl)Nc1ccc(COCCO)c(F)c1 [A133, 1-[[2-(2,3-Dichloro-phenyl)-5-(trifluoromethyl)-2H-pyrazol-3-yl]-methyl]-3-[3-fluoro-4-(2-hydroxy-ethoxy-methyl)-phenyl]-urea]
- Ki: 12 nM

SMILES: CC(C)(C)c1cc(CNC(=O)Nc2ccc(COCCO)c(F)c2)n(-c2ccc(F)cc2)n1 [A134, 1-[[5-tert-Butyl-2-(4-fluorophenyl)-2H-pyrazol-3-yl]-methyl]-3-[3-fluoro-4-(2-hydroxy-ethoxy-methyl)-phenyl]-urea]
- inhibition at 1 µM [1]: 23%

SMILES: CCOc1cc(C)cc(-n2nc(C(F)(F)F)cc2CNC(=O)Nc2ccc(COCCO)c(F)c2)c1 [A135, 1-[[2-(3-Ethoxy-5-methyl-phenyl)-5-(trifluoromethyl)-2H-pyrazol-3-yl]-methyl]-3-[3-fluoro-4-(2-hydroxy-ethoxy-methyl)-phenyl]-urea]
- inhibition at 1 µM [1]: 15%

SMILES: CC(C(=O)NCc1cc(C(F)(F)F)nn1-c1cccc(F)c1)c1ccc(CCO)c(F)c1 (stereo not shown) [A136, 2-[3-Fluoro-4-(2-hydroxy-ethyl)-phenyl]-N-[[2-(3-fluorophenyl)-5-(trifluoromethyl)-2H-pyrazol-3-yl]-methyl]-propionamide]
- Ki: 40 nM

SMILES: CC(C)c1cccc(-n2nc(C(F)(F)F)cc2CNC(=O)C(C)c2ccc(CCO)c(F)c2)c1 (stereo not shown) [A137, 2-[3-Fluoro-4-(2-hydroxy-ethyl)-phenyl]-N-[[2-(3-isopropyl-phenyl)-5-(trifluoromethyl)-2H-pyrazol-3-yl]-methyl]-propionamide]
- Ki: 0.6 nM

SMILES: CC(C(=O)NCc1cc(C(F)(F)F)nn1-c1cccc(Cl)c1)c1ccc(CCO)c(F)c1 (stereo not shown) [A138, N-[[2-(3-Chlorophenyl)-5-(trifluoromethyl)-2H-pyrazol-3-yl]-methyl]-2-[3-fluoro-4-(2-hydroxy-ethyl)-phenyl]-propionamide]
- Ki: 8 nM
